Patent US10457662B2, “Substituted amides for treating and preventing cancer” (The Regents of the University of Michigan, priority 2015, dated 2019)
Read-outs that look alike come from different tables or passages of the source.

Key:
[1] = system: Panc-1; assay: MTT assay, Panc-1; format: cell-based; conditions: Homo sapiens, PANC-1; MTT assay; Mean ± SD, three independent experiments; read-out: IC50 Values Panc-1
Procedure: (§1) Experiments conducted during the course of developing embodiments for the present invention involved performance of a phenotypic screen of a library of 20,000 small-molecules representing five million compounds. […] Subsequently, a lead optimization campaign was performed to synthesize a series of close analogs. Initially, the 50 analogs were tested in three pancreatic cancer cell lines using MTT assay (Table 1).
(§2) For in vitro studies, compounds were dissolved in DMSO at 10 mM as stock solutions and stored at −20° C. For in vivo studies, QN523 was dissolved in a vehicle containing 5% DMSO, 35% propylene glycol and 60% saline, and administered at 100 uL through intraperitoneal injections.

[2] = system: MiaPaCa-2; assay: MTT assay, MiaPaCa-2; conditions: Homo sapiens
Procedure: Cells were treated with QN523 for 1, 4, 8, 24, 48, 72 h and left in culture in fresh media. MTT assay was performed 72 h after initiation of treatment. Data points represent Mean±SD from three independent experiments.
as §1, §2

[3] = system: BxPC-3; assay: MTT assay, BxPC-3; format: cell-based; conditions: Homo sapiens, BXPC-3; MTT assay; Mean ± SD, three independent experiments; read-out: IC50 Values BxPC-3
Procedure: as §1, §2

[4] = MIA PaCa-2, read-out: IC50 Values MiaPaCa-2

IC50 [1] [µM] | IC50 [2, 4] [µM] | IC50 [3] [µM] | Compound | IC50 ([2]; MIA PaCa-2, read-out: IC50 in MiaPaCa-2, comparison compounds) [µM]
0.2 ± 0.1 | 0.11 ± 0.07 | 0.05 ± 0.02 | Nc1ccn([C@@H]2O[C@H](CO)[C@@H](O)C2(F)F)c(=O)n1 [Gemcitabine, reference compound] | –
9 ± 1.41 | 1.3 ± 0.35 | > 10 | COc1cc(NC(=O)c2ncccn2)c2ncccc2c1 [QN113] | –
8.17 ± 1.61 | 1.7 ± 0.52 | 5.17 ± 1.61 | O=C(Nc1cc(OCCN2CCOCC2)cc2cccnc12)c1cnccn1 [QN137, Pyrazine-2-carboxylic acid [6-(2-morpholin-4-yl-ethoxy)-quinolin-8-yl]-amide] | –
> 10 | > 10 | > 10 | CN(C)CCOc1cc(NC(=O)c2cnccn2)c2ncccc2c1 [QN147, Pyrazine-2-carboxylic acid [6-(2-dimethylamino-ethoxy)-quinolin-8-yl]-amide] | –
4.5 ± 0.5 | 1.8 ± 0.46 | 9.67 ± 0.58 | Cc1cnc(C(=O)Nc2cc(OCCN(C)C)cc3cccnc23)cn1 [QN148, 5-Methyl-pyrazine-2-carboxylic acid [6-(2-dimethylamino-ethoxy)-quinolin-8-yl]-amide] | –
> 10 | > 10 | > 10 | CC(C)(C)OC(=O)NCCOc1cc(NC(=O)c2ncccn2)c2ncccc2c1 [QN153, (2-{8-[(Pyrimidine-2-carbonyl)amino]quinolin-6-yloxy}ethyl)carbamic acid tert-butyl ester] | –
> 10 | > 10 | > 10 | NCCOc1cc(NC(=O)c2cnccn2)c2ncccc2c1 [QN154, Pyrazine-2-carboxylic acid [6-(2-aminoethoxy)quinolin-8-yl]amide] | –
> 10 | > 10 | > 10 | Cc1cnc(C(=O)Nc2cc(OCCN)cc3cccnc23)cn1 [QN156, 5-Methylpyrazine-2-carboxylic acid [6-(2-aminoethoxy)quinolin-8-yl]amide] | –
9.5 ± 0.5 | 3.67 ± 1.15 | 3.33 ± 0.58 | CC(C)(C)OC(=O)N1CCC(CCOc2cc(NC(=O)c3cnccn3)c3ncccc3c2)CC1 [QN159, 4-(2-{8-[(Pyrazine-2-carbonyl)amino]quinolin-6-yloxy}ethyl)piperidine-1-carboxylic acid tert-butyl ester] | –
9.67 ± 0.58 | 9 ± 1.73 | 9.33 ± 1.15 | Cc1cnc(C(=O)Nc2cc(OCCC3CCN(C(=O)OC(C)(C)C)CC3)cc3cccnc23)cn1 [QN160] | –
> 10 | > 10 | > 10 | CC(C)(C)OC(=O)N1CCC(CCOc2cc(NC(=O)c3ncccn3)c3ncccc3c2)CC1 [QN161, 4-(2-{8-[(Pyrimidine-2-carbonyl)amino]quinolin-6-yloxy}ethyl)piperidine-1-carboxylic acid tert-butyl ester] | –
> 10 | > 10 | > 10 | NCCOc1cc(NC(=O)c2ncccn2)c2ncccc2c1 [QN162, Pyrimidine-2-carboxylic acid [6-(2-aminoethoxy)quinolin-8-yl]amide] | –
> 10 | > 10 | > 10 | O=C(Nc1cc(OCCC2CCNCC2)cc2cccnc12)c1cnccn1 [QN163, Pyrazine-2-carboxylic acid [6-(2-piperidin-4-yl-ethoxy)quinolin-8-yl]amide] | –
> 10 | 6.17 ± 1.04 | 8.33 ± 1.53 | Cc1cnc(C(=O)Nc2cc(OCCC3CCNCC3)cc3cccnc23)cn1 [QN164, 5-Methylpyrazine-2-carboxylic acid [6-(2-piperidin-4-yl-ethoxy)quinolin-8-yl]amide] | –
> 10 | > 10 | > 10 | O=C(Nc1cc(OCCC2CCNCC2)cc2cccnc12)c1ncccn1 [QN165, Pyrimidine-2-carboxylic acid [6-(2-piperidin-4-yl-ethoxy)quinolin-8-yl]amide] | –
– | – | – | CC(COc1ccccc1)N(CCCl)Cc1ccccc1 (stereo not shown) [pheoxybenzamine, reference compound] | > 30
